Data reported in paper PMC5931096, “A Phase I study of the novel immunomodulatory agent PG545 (pixatimod) in subjects with advanced solid tumours” (British Journal of Cancer, 2018).
“Also recorded” adds a separate entry of the source.

Assay: Phase I dose-escalation: safety, tolerability, DLT and MTD of weekly 1-h IV infusion
Format: in vivo
Method: The study was an open-label, multicentre, phase 1 dose-escalation study using a 3 + 3 design. The primary objective was to determine the MTD of weekly administered PG545 via IV infusion. Secondary objectives were to characterize safety, tolerability, clinical activity, PK and PD biomarkers.
Patients continued treatment until disease progression, unacceptable toxicity or withdrawal (either voluntarily or investigator-decision).
All patients were assessed for safety, those who received at least one dose of PG545 were evaluated for efficacy. Safety assessment included the incidence of all adverse events (AEs), irrespective of relationship to study drug, according to the National Cancer Institute Common Terminology Criteria for Adverse Events, version 4.0, and the incidence of patients experiencing dose modifications and/or premature discontinuation of study drug. Dose-limiting toxicities (DLTs) used to determine the MTD were defined as occurring during Cycle 1 of treatment only and related to PG545 according to investigator assessment. If no DLT occurred in the first three subjects, the next three-subject cohort was enrolled at the next highest available dose level. If a single DLT occurred, an additional three subjects was enrolled at the same dose level. Dose escalation continued until two subjects of the cohort experienced a DLT; this was defined as the toxic dose level. The dose-escalation phase was completed and MTD determined by reducing the dose to the next lowest dose compared to the toxic dose and expanding this cohort to at least 6 subjects.

[1] = 150 mg, during or 1 h post-infusion, typical
[2] = Life threatening/Fatal, Unrelated, Safety Set

## CC(C)CCC[C@@H](C)[C@H]1CC[C@H]2[C@@H]3CC[C@H]4C[C@@H](O[C@@H]5O[C@H](COS(=O)(=O)O)[C@@H](O[C@H]6O[C@H](COS(=O)(=O)O)[C@@H](O[C@H]7O[C@H](COS(=O)(=O)O)[C@@H](O[C@H]8O[C@H](COS(=O)(=O)O)[C@@H](OS(=O)(=O)O)[C@H](OS(=O)(=O)O)[C@H]8OS(=O)(=O)O)[C@H](OS(=O)(=O)O)[C@H]7OS(=O)(=O)O)[C@H](OS(=O)(=O)O)[C@H]6OS(=O)(=O)O)[C@H](OS(=O)(=O)O)[C@H]5OS(=O)(=O)O)CC[C@]4(C)[C@H]3CC[C@]12C [PG545]
25 mg, N = 3
  Acute pulmonary oedema, related AE leading to discontinuation: 0 n (%)
  Acute pulmonary oedema, related serious AE: 0 n (%)
  Acute pulmonary oedema, related severe AE: 0 n (%)
  Blood cholesterol increased, related severe AE: 0 n (%)
  Blood cholesterol increased, treatment-related AE: 0 n (%)
  Blood pressure increased, related severe AE: 0 n (%)
  Chills, related AE leading to discontinuation: 0 n (%)
  Chills, related severe AE: 0 n (%)
  Chills, treatment-related AE: 0 n (%)
  Decreased appetite, treatment-related AE: 0 n (%)
  Diarrhoea, treatment-related AE: 0 n (%)
  Epistaxis, related AE leading to discontinuation: 0 n (%)
  Epistaxis, related serious AE: 0 n (%)
  Epistaxis, related severe AE: 0 n (%)
  Fatigue, related severe AE: 0 n (%)
  Fatigue, treatment-related AE: 0 n (%)
  Headache, treatment-related AE: 0 n (%)
  Hypercholesterolemia, treatment-related AE: 0 n (%)
  Hyperlipidaemia, related severe AE: 0 n (%)
  Hypertension, related AE leading to discontinuation: 0 n (%)
  Hypertension, related serious AE: 0 n (%)
  Hypertension, related severe AE: 0 n (%)
  Hypertension, treatment-related AE: 0 n (%)
  Hypovolaemia, related serious AE: 0 n (%)
  Infusion-related reaction, related serious AE: 0 n (%)
  Infusion-related reaction, related severe AE: 0 n (%)
  Infusion-related reaction, treatment-related AE: 0 n (%)
  Injection site reaction, treatment-related AE: 2 (67) n (%)
  Nausea, treatment-related AE: 0 n (%)
  Pyrexia, related AE leading to discontinuation: 0 n (%)
  Pyrexia, related serious AE: 0 n (%)
  Pyrexia, related severe AE: 0 n (%)
  Pyrexia, treatment-related AE: 0 n (%)
50 mg, N = 5
  Acute pulmonary oedema, related AE leading to discontinuation: 0 n (%)
  Acute pulmonary oedema, related serious AE: 0 n (%)
  Acute pulmonary oedema, related severe AE: 0 n (%)
  Blood cholesterol increased, related severe AE: 0 n (%)
  Blood cholesterol increased, treatment-related AE: 0 n (%)
  Blood pressure increased, related severe AE: 0 n (%)
  Chills, related AE leading to discontinuation: 1 (20) n (%)
  Chills, related severe AE: 1 (20) n (%)
  Chills, treatment-related AE: 1 (20) n (%)
  Decreased appetite, treatment-related AE: 2 (40) n (%)
  Diarrhoea, treatment-related AE: 1 (20) n (%)
  Epistaxis, related AE leading to discontinuation: 0 n (%)
  Epistaxis, related serious AE: 0 n (%)
  Epistaxis, related severe AE: 0 n (%)
  Fatigue, related severe AE: 1 (20) n (%)
  Fatigue, treatment-related AE: 2 (40) n (%)
  Headache, treatment-related AE: 0 n (%)
  Hypercholesterolemia, treatment-related AE: 0 n (%)
  Hyperlipidaemia, related severe AE: 0 n (%)
  Hypertension, related AE leading to discontinuation: 0 n (%)
  Hypertension, related serious AE: 0 n (%)
  Hypertension, related severe AE: 0 n (%)
  Hypertension, treatment-related AE: 1 (20) n (%)
  Hypovolaemia, related serious AE: 0 n (%)
  Infusion-related reaction, related serious AE: 0 n (%)
  Infusion-related reaction, related severe AE: 0 n (%)
  Infusion-related reaction, treatment-related AE: 0 n (%)
  Injection site reaction, treatment-related AE: 0 n (%)
  Nausea, treatment-related AE: 4 (80) n (%)
  Pyrexia, related AE leading to discontinuation: 1 (20) n (%)
  Pyrexia, related serious AE: 1 (20) n (%)
  Pyrexia, related severe AE: 1 (20) n (%)
  Pyrexia, treatment-related AE: 3 (60) n (%)
100 mg cohort
  Dose-limiting toxicities (DLTs): No DLTs were noted; also recorded: no further DLT observed
  Hypertension: not observed
100 mg, N = 6
  Acute pulmonary oedema, related AE leading to discontinuation: 0 n (%)
  Acute pulmonary oedema, related serious AE: 0 n (%)
  Acute pulmonary oedema, related severe AE: 0 n (%)
  Blood cholesterol increased, related severe AE: 0 n (%)
  Blood cholesterol increased, treatment-related AE: 1 (17) n (%)
  Blood pressure increased, related severe AE: 0 n (%)
  Chills, related AE leading to discontinuation: 0 n (%)
  Chills, related severe AE: 0 n (%)
  Chills, treatment-related AE: 0 n (%)
  Decreased appetite, treatment-related AE: 1 (17) n (%)
  Diarrhoea, treatment-related AE: 2 (33) n (%)
  Epistaxis, related AE leading to discontinuation: 0 n (%)
  Epistaxis, related serious AE: 0 n (%)
  Epistaxis, related severe AE: 0 n (%)
  Fatigue, related severe AE: 1 (17) n (%)
  Fatigue, treatment-related AE: 2 (33) n (%)
  Headache, treatment-related AE: 2 (33) n (%)
  Hypercholesterolemia, treatment-related AE: 2 (33) n (%)
  Hyperlipidaemia, related severe AE: 1 (17) n (%)
  Hypertension, related AE leading to discontinuation: 0 n (%)
  Hypertension, related serious AE: 0 n (%)
  Hypertension, related severe AE: 0 n (%)
  Hypertension, treatment-related AE: 0 n (%)
  Hypovolaemia, related serious AE: 1 (17) n (%)
  Infusion-related reaction, related serious AE: 0 n (%)
  Infusion-related reaction, related severe AE: 0 n (%)
  Infusion-related reaction, treatment-related AE: 0 n (%)
  Injection site reaction, treatment-related AE: 0 n (%)
  Nausea, treatment-related AE: 0 n (%)
  Pyrexia, related AE leading to discontinuation: 0 n (%)
  Pyrexia, related serious AE: 0 n (%)
  Pyrexia, related severe AE: 0 n (%)
  Pyrexia, treatment-related AE: 1 (17) n (%)
150 mg cohort, first cycle
  Dose-limiting toxicities (DLTs), number: Three
150 mg, N = 9
  Acute pulmonary oedema, related AE leading to discontinuation: 1 (11) n (%)
  Acute pulmonary oedema, related serious AE: 1 (11) n (%)
  Acute pulmonary oedema, related severe AE: 1 (11) n (%)
  Blood cholesterol increased, related severe AE: 1 (11) n (%)
  Blood cholesterol increased, treatment-related AE: 1 (11) n (%)
  Blood pressure increased, related severe AE: 1 (11) n (%)
  Chills, related AE leading to discontinuation: 0 n (%)
  Chills, related severe AE: 1 (11) n (%)
  Chills, treatment-related AE: 4 (44) n (%)
  Decreased appetite, treatment-related AE: 2 (22) n (%)
  Diarrhoea, treatment-related AE: 1 (11) n (%)
  Epistaxis, related AE leading to discontinuation: 1 (11) n (%)
  Epistaxis, related serious AE: 1 (11) n (%)
  Epistaxis, related severe AE: 1 (11) n (%)
  Fatigue, related severe AE: 0 n (%)
  Fatigue, treatment-related AE: 1 (11) n (%)
  Headache, treatment-related AE: 0 n (%)
  Hypercholesterolemia, treatment-related AE: 0 n (%)
  Hyperlipidaemia, related severe AE: 0 n (%)
  Hypertension, related AE leading to discontinuation: 1 (11) n (%)
  Hypertension, related serious AE: 1 (11) n (%)
  Hypertension, related severe AE: 5 (56) n (%)
  Hypertension, treatment-related AE: 5 (56) n (%)
  Hypovolaemia, related serious AE: 0 n (%)
  Infusion-related reaction, related serious AE: 1 (11) n (%)
  Infusion-related reaction, related severe AE: 1 (11) n (%)
  Infusion-related reaction, treatment-related AE: 5 (56) n (%)
  Injection site reaction, treatment-related AE: 0 n (%)
  Nausea, treatment-related AE: 1 (11) n (%)
  Pyrexia, related AE leading to discontinuation: 0 n (%)
  Pyrexia, related serious AE: 0 n (%)
  Pyrexia, related severe AE: 0 n (%)
  Pyrexia, treatment-related AE: 1 (11) n (%)
[1]
  Diastolic pressure during hypertension events, increase to: 100 mm Hg
  Systolic pressure during hypertension events, increase to: 170 mm Hg
150 mg, one subject
  Blood pressure, substantial increase in one subject, to: 200/126
Life threatening/Fatal, Related, Safety Set
  TEAE: At least one event: 0 (0.0%)
[2]
  TEAE: At least one event: 5 (21.7%)
  TEAE: Death: 2 (8.7%)
  TEAE: Fatigue: 1 (4.3%)
  TEAE: GGT increased: 3 (13.0%)
  TEAE: General disorders and administration site conditions: 3 (13.0%)
  TEAE: Hyperuricaemia: 1 (4.3%)
  TEAE: Investigations: 3 (13.0%)
  TEAE: Metabolism and nutritional disorders: 1 (4.3%)
Mild, Related, Safety Set
  TEAE: Abdominal distension: 1 (4.3%)
  TEAE: Abdominal pain lower: 1 (4.3%)
  TEAE: Anaemia: 1 (4.3%)
  TEAE: Asthenia: 1 (4.3%)
  TEAE: At least one event: 16 (70.0%)
  TEAE: Back pain: 1 (4.3%)
  TEAE: Blood ALP increased: 1 (4.3%)
  TEAE: Blood and lymphatic system disorders: 1 (4.3%)
  TEAE: Blood cholesterol increased: 1 (4.3%)
  TEAE: Blood triglycerides increased: 1 (4.3%)
  TEAE: Chills: 2 (8.7%)
  TEAE: Constipation: 1 (4.3%)
  TEAE: Cough: 1 (4.3%)
  TEAE: Decreased appetite: 4 (17.4%)
  TEAE: Diarrhoea: 4 (17.5%)
  TEAE: Diplopia: 1 (4.3%)
  TEAE: Dizziness: 1 (4.3%)
  TEAE: Dysgeusia: 1 (4.3%)
  TEAE: Dyspepsia: 1 (4.3%)
  TEAE: Eye disorders: 1 (4.3%)
  TEAE: Fall: 1 (4.3%)
  TEAE: Fatigue: 1 (4.3%)
  TEAE: Gastrointestinal disorders: 8 (34.8%)
  TEAE: General disorders and administration site conditions: 11 (47.8%)
  TEAE: Headache: 2 (8.7%)
  TEAE: Hypercholesterolaemia: 1 (4.3%)
  TEAE: Hypovolaemia: 1 (4.3%)
  TEAE: Infusion related reaction: 1 (4.3%)
  TEAE: Injection site reaction: 2 (8.7%)
  TEAE: Injury, poisoning and procedural complications: 2 (8.7%)
  TEAE: Investigations: 3 (13.0%)
  TEAE: Low density lipoprotein increased: 1 (4.3%)
  TEAE: Malaise: 1 (4.3%)
  TEAE: Metabolism and nutritional disorders: 5 (21.7%)
  TEAE: Musculoskeletal and connective tissue disorders: 2 (8.7%)
  TEAE: Musculoskeletal pain: 1 (4.3%)
  TEAE: Nausea: 4 (17.5%)
  TEAE: Nervous system disorders: 3 (13.0%)
  TEAE: Oxygen saturation decreased: 1 (4.3%)
  TEAE: Peripheral coldness: 1 (4.3%)
  TEAE: Pyrexia: 5 (21.7%)
  TEAE: Rash: 1 (4.3%)
  TEAE: Rash erythematous: 1 (4.3%)
  TEAE: Respiratory, thoracic and mediastinal disorders: 1 (4.3%)
  TEAE: Skin and subcutaneous tissue disorders: 2 (8.7%)
  TEAE: Vascular disorders: 1 (4.3%)
Mild, Unrelated, Safety Set
  TEAE: Abdominal distension: 1 (4.3%)
  TEAE: Abdominal pain: 2 (8.7%)
  TEAE: Abdominal pain upper: 1 (4.3%)
  TEAE: Anxiety: 2 (8.7%)
  TEAE: Ascites: 1 (4.3%)
  TEAE: Back pain: 2 (8.7%)
  TEAE: Blood ALP increased: 1 (4.3%)
